# Laboratory results published in patent publication US9198918B2, “Benzoxazepin PI3K inhibitor compounds and methods of use” (Genentech, Inc., priority 2009, dated 2015).
# pEC50, pIC50, pKi: −log10 of the molar value.
# Key:
# [1] = biological target: T1, PI3K alpha (p110 alpha) (Homo sapiens, UniProt P42336); assay: PI3K p110α (alpha) binding assay (Example 901); settings: for pIC50: read-out: IC50, inhibition of PI3K alpha (binding to p110 alpha)
# T1 construct: purchased Upstate Cell Signaling Solutions, Charlottesville, Va
# T1 sequence (P42336 whole entry): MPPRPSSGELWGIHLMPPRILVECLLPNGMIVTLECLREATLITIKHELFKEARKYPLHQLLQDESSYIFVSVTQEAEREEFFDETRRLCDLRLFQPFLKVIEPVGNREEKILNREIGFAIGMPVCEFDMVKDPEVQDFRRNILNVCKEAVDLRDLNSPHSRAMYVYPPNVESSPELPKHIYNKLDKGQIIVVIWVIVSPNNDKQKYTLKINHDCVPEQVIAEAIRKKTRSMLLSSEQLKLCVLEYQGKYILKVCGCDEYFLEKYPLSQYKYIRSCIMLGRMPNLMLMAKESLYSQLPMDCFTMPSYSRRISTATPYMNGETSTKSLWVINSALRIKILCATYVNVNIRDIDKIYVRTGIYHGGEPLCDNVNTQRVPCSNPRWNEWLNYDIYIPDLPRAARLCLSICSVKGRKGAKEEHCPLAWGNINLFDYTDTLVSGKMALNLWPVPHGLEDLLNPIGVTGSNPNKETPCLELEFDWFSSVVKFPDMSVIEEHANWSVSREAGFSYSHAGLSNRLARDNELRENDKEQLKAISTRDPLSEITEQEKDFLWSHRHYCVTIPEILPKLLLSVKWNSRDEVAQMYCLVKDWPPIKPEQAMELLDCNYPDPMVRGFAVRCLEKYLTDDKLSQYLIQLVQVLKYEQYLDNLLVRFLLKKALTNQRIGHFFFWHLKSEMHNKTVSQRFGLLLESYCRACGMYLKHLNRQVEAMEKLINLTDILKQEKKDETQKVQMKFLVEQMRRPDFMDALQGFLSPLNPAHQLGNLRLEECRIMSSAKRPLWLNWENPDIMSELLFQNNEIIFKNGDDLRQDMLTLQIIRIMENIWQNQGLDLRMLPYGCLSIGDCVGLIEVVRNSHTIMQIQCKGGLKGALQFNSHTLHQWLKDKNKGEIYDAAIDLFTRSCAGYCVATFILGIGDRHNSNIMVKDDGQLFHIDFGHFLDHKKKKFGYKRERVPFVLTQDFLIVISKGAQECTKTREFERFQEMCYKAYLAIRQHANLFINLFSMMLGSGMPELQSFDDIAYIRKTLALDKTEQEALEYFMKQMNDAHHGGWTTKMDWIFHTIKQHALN
# T1 sequence (P27986 whole entry partner): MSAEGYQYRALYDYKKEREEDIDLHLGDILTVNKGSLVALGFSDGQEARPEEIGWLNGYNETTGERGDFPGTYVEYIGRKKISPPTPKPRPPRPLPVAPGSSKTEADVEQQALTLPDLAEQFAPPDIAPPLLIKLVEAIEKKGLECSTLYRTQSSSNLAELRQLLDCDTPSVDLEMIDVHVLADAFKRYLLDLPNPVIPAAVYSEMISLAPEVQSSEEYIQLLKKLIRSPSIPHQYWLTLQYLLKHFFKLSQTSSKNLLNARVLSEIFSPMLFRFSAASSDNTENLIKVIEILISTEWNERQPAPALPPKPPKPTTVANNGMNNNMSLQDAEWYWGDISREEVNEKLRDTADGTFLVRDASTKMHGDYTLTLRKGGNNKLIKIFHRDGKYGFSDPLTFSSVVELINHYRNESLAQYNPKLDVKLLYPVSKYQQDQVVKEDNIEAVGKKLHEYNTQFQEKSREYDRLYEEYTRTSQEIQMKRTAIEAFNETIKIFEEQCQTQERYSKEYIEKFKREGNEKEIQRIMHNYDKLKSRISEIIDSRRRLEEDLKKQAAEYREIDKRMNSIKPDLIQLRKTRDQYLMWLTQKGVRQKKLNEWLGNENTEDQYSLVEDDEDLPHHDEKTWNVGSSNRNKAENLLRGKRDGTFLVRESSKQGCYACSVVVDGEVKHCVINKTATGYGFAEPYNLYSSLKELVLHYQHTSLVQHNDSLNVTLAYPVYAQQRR
# Text: Determination of the PI3 kinase activity of a Formula I compound is possible by a number of direct and indirect detection methods.
# [2] = system: AU565; assay: CellTiter-Glo cell proliferation assay, AU565; format: cell-based; settings: Homo sapiens, Breast, mutation status WT
# Protocol: (§1) Efficacy of Formula I compounds was measured by a cell proliferation assay employing the following protocol (Promega Corp. Technical Bulletin TB288; Mendoza et al (2002) Cancer Res. 62:5485-5488):
# (§2) 1. An aliquot of 100 μl of cell culture containing about 104 cells (PC3, Detroit562, or MDAMB361.1) in medium was deposited in each well of a 384-well, opaque-walled plate.
# (§3) 2. Control wells were prepared containing medium and without cells.
# (§4) 3. The compound was added to the experimental wells and incubated for 3-5 days.
# (§5) 4. The plates were equilibrated to room temperature for approximately 30 minutes.
# (§6) 5. A volume of CellTiter-Glo Reagent equal to the volume of cell culture medium present in each well was added.
# (§7) 6. The contents were mixed for 2 minutes on an orbital shaker to induce cell lysis.
# (§8) 7. The plate was incubated at room temperature for 10 minutes to stabilize the luminescence signal.
# (§9) 8. Luminescence was recorded and reported in graphs as RLU=relative luminescence units.
# (§10) Alternatively, cells were seeded at optimal density in a 96 well plate and incubated for 4 days in the presence of test compound. Alamar Blue™ was subsequently added to the assay medium, and cells were incubated for 6 hr before reading at 544 nm excitation, 590 nm emission. EC50 values were calculated using a sigmoidal dose response curve fit. The term EC50 refers to the half maximal effective concentration and is the concentration at which a drug induces a response halfway between the baseline and maximum after some specified exposure time. It is commonly used as a measure of drug potency.
# (§11) The anti-proliferative effects of Formula I exemplary compounds were measured by the CellTiter-Glo® Assay against various tumor cell lines, including the following: […]
# [3] = system: EVSA-T; assay: CellTiter-Glo cell proliferation assay, EVSA-T; format: cell-based; settings: Homo sapiens, Breast, mutation status PTEN
# Protocol: as §1, §2, §3, §4, §5, §6, §7, §8, §9, §10, §11
# [4] = system: MDA-MB-361.1; assay: CellTiter-Glo cell proliferation assay, MDA-MB-361.1; format: cell-based; settings: Breast, mutation status PI3K
# Protocol: as §1, §2, §3, §4, §5, §6, §7, §8, §9, §10, §11
# [5] = system: PC3; assay: CellTiter-Glo cell proliferation assay, PC3; format: cell-based; settings: Homo sapiens, PC-3, Prostate, mutation status PTEN
# Protocol: as §1, §2, §3, §4, §5, §6, §7, §8, §9, §10, §11
# [6] = system: BT474; assay: CellTiter-Glo cell proliferation assay, BT474; format: cell-based; settings: Homo sapiens, BT-474, Breast, mutation status PI3K(amped)
# Protocol: as §1, §2, §3, §4, §5, §6, §7, §8, §9, §10, §11
# [7] = system: HCC1954; assay: CellTiter-Glo cell proliferation assay, HCC1954; format: cell-based; settings: Homo sapiens, Breast, mutation status PI3K
# Protocol: as §1, §2, §3, §4, §5, §6, §7, §8, §9, §10, §11
# [8] = system: KPL4; assay: CellTiter-Glo cell proliferation assay, KPL4; format: cell-based; settings: Breast, mutation status PI3K
# Protocol: as §1, §2, §3, §4, §5, §6, §7, §8, §9, §10, §11
# [9] = system: MFM223; assay: CellTiter-Glo cell proliferation assay, MFM223; format: cell-based; settings: Homo sapiens, MFM-223, Breast, mutation status PI3K
# Protocol: as §1, §2, §3, §4, §5, §6, §7, §8, §9, §10, §11
# [10] = system: SKBR3; assay: CellTiter-Glo cell proliferation assay, SKBR3; format: cell-based; settings: Homo sapiens, SK-BR-3, Breast, mutation status WT
# Protocol: as §1, §2, §3, §4, §5, §6
# 6. […]
# as §8, §9
# (§12) Alternatively, cells were seeded at optimal density in a 96 well plate and incubated for 4 days in the presence of test compound. Alamar Blue™ was subsequently added to the assay medium, and cells were incubated for 6 hr before reading at 544 nm excitation, 590 nm emission. EC50 values were calculated using a sigmoidal dose response curve fit. […]
# as §11
# [11] = system: T47D; assay: CellTiter-Glo cell proliferation assay, T47D; format: cell-based; settings: Homo sapiens, Breast, mutation status PI3K
# Protocol: as §1, §2, §3, §4, §5, §6, §7, §8, §9, §10, §11
# [12] = system: H2122; assay: CellTiter-Glo cell proliferation assay, H2122; format: cell-based; settings: Homo sapiens, NCI-H2122, Lung(NSCLC), mutation status K-RAS
# Protocol: as §1, §2, §3, §4, §5, §6, §7, §8, §9, §10, §11
# [13] = system: A375; assay: CellTiter-Glo cell proliferation assay, A375; format: cell-based; settings: Homo sapiens, A-375, Melanoma, mutation status B-Raf
# Protocol: as §1, §2, §3, §4, §5, §6
# 6. […]
# as §8, §9, §12, §11
# [14] = system: KM12; assay: CellTiter-Glo cell proliferation assay, KM12; format: cell-based; settings: Homo sapiens, Colon, mutation status PTEN
# Protocol: as §1, §2, §3, §4, §5, §6
# 6. […]
# as §8, §9, §12, §11
# [15] = system: MDST8; assay: CellTiter-Glo cell proliferation assay, MDST8; format: cell-based; settings: Colon, mutation status PTEN
# Protocol: as §1, §2, §3, §4, §5, §6
# 6. […]
# as §8, §9, §12, §11
# [16] = system: U87MG; assay: CellTiter-Glo cell proliferation assay, U87MG; format: cell-based; settings: Homo sapiens, U-87 MG, Glioma, mutation status PTEN
# Protocol: as §1, §2, §3, §4, §5, §6
# 6. […]
# as §8, §9, §12, §11
# [17] = system: H520; assay: CellTiter-Glo cell proliferation assay, H520; format: cell-based; settings: Homo sapiens, NCI-H520, Lung(NSCLC), mutation status PTEN
# Protocol: as §1, §2, §3, §4, §5, §6
# 6. […]
# as §8, §9, §12, §11
compound,measurement,setting,value
"CN(C(=O)c1cc2n(n1)-c1ccccc1OCC2)c1ccc(F)cc1F [compound 101, N-(2,4-difluorophenyl)-N-methyl-4,5-dihydrobenzo[b]pyrazolo[1,5-d][1,4]oxazepine-2-carboxamide]",pIC50,[1],6.11
"NC(=O)c1ccc2c(c1)-c1nc(-c3ncnn3-c3ccccc3Cl)cn1CCO2 [compound 102, 2-(1-(2-chlorophenyl)-1H-1,2,4-triazol-5-yl)-5,6-dihydrobenzo[f]imidazo[1,2-d][1,4]oxazepine-10-carboxamide]",pIC50,[1],8.52
"Fc1ccc(-n2ncnc2-n2cc3c(n2)-c2ccc(Br)cc2OCC3)c(F)c1 [compound 103, 2-(1-(2,4-difluorophenyl)-1H-1,2,4-triazol-5-yl)-8-bromo-4,5-dihydrobenzo-2H-oxepino[4,5-d]pyrazole]",pIC50,[1],7.24
"NC(=O)c1ccc2c(c1)OCCc1cn(-c3ncnn3-c3ccc(F)cc3F)nc1-2 [compound 107, 2-(1-(2,4-difluorophenyl)-1H-1,2,4-triazol-5-yl)-4,5-dihydrobenzo-2H-oxepino[4,5-d]pyrazole-8-carboxamide]",pEC50,[2],6.59
same,pEC50,[3],5.85
same,pEC50,[4],5.98
same,pEC50,[5],6.00
"Clc1ccccc1-n1ncnc1-n1cc2c(n1)-c1cc(C3CCNCC3)ccc1OCC2 [compound 154, 2-(1-(2-chlorophenyl)-1H-1,2,4-triazol-5-yl)-9-piperid-4-yl-4,5-dihydrobenzo-2H-oxepino[4,5-d]pyrazole]",pIC50,[1],9.04
"CC(C)n1ncnc1-c1cc2n(n1)-c1cc(C3CN(C(C)(C)CO)C3)ccc1OCC2 [compound 170, 2-(3-(2-(1-isopropyl-1H-1,2,4-triazol-5-yl)-4,5-dihydrobenzo[b]pyrazolo[1,5-d][1,4]oxazepin-9-yl)azetidin-1-yl)-2-methylpropan-1-ol]",pIC50,[1],7.66
"CS(=O)(=O)CCN1CC(c2ccc3c(c2)OCCc2cn(-c4ncnn4-c4ccc(F)cc4F)nc2-3)C1 [compound 171, 2-(1-(2,4-difluorophenyl)-1H-1,2,4-triazol-5-yl)-8-(1-(2-(methylsulfonyl)ethyl)azetidin-3-yl)-4,5-dihydrobenzo-2H-oxepino[4,5-d]pyrazole]",pIC50,[1],9.18
"Cc1nc(-c2cn3c(n2)-c2ccc(-c4cnn(CCO)c4)cc2OCC3)n(C(C)C)n1 [compound 186, 2-(4-(2-(1-isopropyl-3-methyl-1H-1,2,4-triazol-5-yl)-5,6-dihydrobenzo[f]imidazo[1,2-d][1,4]oxazepin-9-yl)-1H-pyrazol-1-yl)ethanol]",pEC50,[2],6.33
same,pEC50,[6],6.49
same,pEC50,[3],5.70
same,pEC50,[7],6.38
same,pEC50,[8],7.06
same,pEC50,[4],6.15
same,pEC50,[9],5.96
same,pEC50,[10],6.07
same,pEC50,[11],6.88
same,pEC50,[12],5.53
same,pEC50,[5],5.89
"Cc1nc(-c2cn3c(n2)-c2ccc(-c4cnn(C(C)(C)C(N)=O)c4)cc2OCC3)n(C(C)C)n1 [compound 196, 2-(4-(2-(1-isopropyl-3-methyl-1H-1,2,4-triazol-5-yl)-5,6-dihydrobenzo[f]imidazo[1,2-d][1,4]oxazepin-9-yl)-1H-pyrazol-1-yl)-2-methylpropanamide]",pEC50,[2],6.82
same,pEC50,[6],7.07
same,pEC50,[7],6.89
same,pEC50,[8],7.80
same,pEC50,[4],6.75
same,pEC50,[11],7.35
same,pEC50,[13],5.00
"CC(C)NC(=O)CN1CC(c2ccc3c(c2)OCCn2cc(-c4ncnn4C(C)C)nc2-3)C1 [compound 200, N-isopropyl-2-(3-(2-(1-isopropyl-1H-1,2,4-triazol-5-yl)-5,6-dihydrobenzo[f]imidazo[1,2-d][1,4]oxazepin-9-yl)azetidin-1-yl)acetamide]",pIC50,[1],8.70
"CC(C)n1ncnc1-c1cn2c(n1)-c1ccc(-c3cn(CCO)cn3)cc1OCC2 [compound 207, 2-(4-(2-(1-isopropyl-1H-1,2,4-triazol-5-yl)-5,6-dihydrobenzo[f]imidazo[1,2-d][1,4]oxazepin-9-yl)-1H-imidazol-1-yl)ethanol]",pEC50,[2],5.43
same,pEC50,[6],5.78
same,pEC50,[3],5.75
same,pEC50,[7],5.47
same,pEC50,[8],5.87
same,pEC50,[4],≤ 5.00
same,pEC50,[9],5.14
same,pEC50,[11],6.12
same,pEC50,[14],≤ 5.00
same,pEC50,[15],5.11
same,pEC50,[16],5.24
same,pEC50,[12],≤ 5.00
same,pEC50,[17],5.89
same,pEC50,[5],6.12
"CNC(=O)C(C)(C)N1CCC(c2ccc3c(c2)OCCn2cc(-c4ncnn4C(C)C)nc2-3)CC1 [compound 248, 2-(4-(2-(1-isopropyl-1H-1,2,4-triazol-5-yl)-5,6-dihydrobenzo[f]imidazo[1,2-d][1,4]oxazepin-9-yl)piperidin-1-yl)-N,2-dimethylpropanamide]",pIC50,[1],9.43
"Cc1nc(-c2cn3c(n2)-c2ccc(-c4cnn(C(C)(C)C(=O)O)c4)cc2OCC3)n(C(C)C)n1 [compound 251, 2-(4-(2-(1-isopropyl-3-methyl-1H-1,2,4-triazol-5-yl)-5,6-dihydrobenzo[f]imidazo[1,2-d][1,4]oxazepin-9-yl)-1H-pyrazol-1-yl)-2-methylpropanoic acid]",pIC50,[1],8.85
"CC(C)n1nc(N)nc1-c1cn2c(n1)-c1ccc(F)cc1OCC2 [compound 253, 5-(9-fluoro-5,6-dihydrobenzo[f]imidazo[1,2-d][1,4]oxazepin-2-yl)-1-isopropyl-1H-1,2,4-triazol-3-amine]",pIC50,[1],8.36
"CC(C)n1ncnc1-c1cn2c(n1)-c1cnc(N3CCC[C@H]3C(N)=O)cc1OCC2 [compound 338, (2S)-1-(2-(1-isopropyl-1H-1,2,4-triazol-5-yl)-5,6-dihydroimidazo[1,2-d]pyrido[3,4-f][1,4]oxazepin-9-yl)pyrrolidine-2-carboxamide]",pIC50,[1],9.49
"Cc1nc(-c2cn3c(n2)-c2ccc(OC4COC4)cc2OCC3)n(C(C)C)n1 [compound 520, 2-(1-isopropyl-3-methyl-1H-1,2,4-triazol-5-yl)-9-(oxetan-3-yloxy)-5,6-dihydrobenzo[f]imidazo[1,2-d][1,4]oxazepine]",pKi,"[1]; read-out: Ki, inhibition of PI3K alpha (binding to p110 alpha)",8.68
